Test results as given in patent US10519504B2, “Methods for treatment of oncological disorders using epimetabolic shifters, multidimensional intracellular molecules, or environmental influencers” (Berg LLC, priority 2009, dated 2019).

Assays:
MCF-7 = assay: Nexin assay for apoptosis (Annexin-V-PE/7-AAD, flow cytometry); format: cell-based; settings: 50 μM and 100 μM Q10, 24 hours
Excerpt: (§1) The 7AAD dye will enter into cells with permeabilized cell membranes; primarily those cells that are in late apoptosis. Annexin-V-PE is a dye that binds to Phosphotidyl serine, which is exposed on the outer surface of the plasma membrane in early apoptotic cells. The Nexin reagent thus can be used to differentiate between different populations of apoptotic cells in a flow cytometer.

PC-3 = assay: as above; format: cell-based; settings: 50 μM and 100 μM Q10, 24 hours, less than in PaCa2
Excerpt: as §1

SK-MEL28 = assay: as above; format: cell-based; settings: 50 μM and 100 μM Q10, 24 hours
Excerpt: as §1

[1] = test system: Pyruvate Dehydrogenase-B (PDH-E1); assay: Western blot, Pyruvate Dehydrogenase beta levels; format: cell-based, human
Experimental: The pyruvate kinase blots were stripped by incubating for 30 minutes with methanol, followed by two 10 minute washes with TBS-T, then 30 minutes of incubation with Stripping buffer at 50 deg C., and followed by two washes with 100 ml or more of TBS-T for 30′ each. The 2 blots were scanned in laser scanner to check for complete stripping. After making sure stripping of the antibody and the ECF reagent has worked, the blots were activated with methanol for 5 seconds, washed with water for 5 minutes, and TBST for 15 minutes. The blots are blocked for 1 hour with 5% blocking reagent in TBS-T at room temperature and then washed 3 times with TBS-T (1X−15′; 2X5′ each) and probed with the antibody for Pyruvate Dehydrogenase in 5% BSA (ABNOVA catalog #H00005162-M03) at 1:500 dilutions) overnight at 4 deg C. with shaking. After the overnight incubation with primary antibody for Pyruvate Dehydrogenase, the membranes were washed 3 times with TBS-T (1X−15′; 2X5′ each) and probed with the secondary antibody (antimouse; 1:10,000 dilution) for 1 h on the orbital tilting shaker at room temperature. […]
The levels of LDH and PDH were determined by probing the blots successively with primary antibodies for LDH and PDH, essentially as described above. […]

HK-2 cells = assay: Diabetes PCR array; format: cell-based, human; settings: HK2(H) cells, 22 mM glucose; particularly 100 μM
Experimental: The HK-2 and HASMC cells are normally maintained in culture at 5.5 mM glucose, which is a concentration that corresponds to a range considered normal in human blood. However, in order to simulate a diabetic environment, both cell lines were subsequently maintained at 22 mM glucose, which corresponds to the range observed in human blood associated with chronic hyperglycemia. The cells were subsequently allowed to propagate over 3 passages so that the intracellular regulation processes were functionally adapted to mimic a diabetic state. The choice of cell line was based on the physiologic influence of diabetes on renal dysfunction and progression to end-stage renal disease (ESRD) in addition to the progressive pathophysiology of a compromised cardiovascular function.
The Diabetes PCR array (SABiosciences) offers a screen for 84 genes simultaneously.
A stringent analysis of the Real time PCR data of the HK-2 samples on the Diabetes Arrays (Cat #PAHS-023E, SABiosciences Frederick Md.) was made to exclude all results where gene regulation was not at least a two-fold regulation over HK-2 normal untreated cells with a p value of less than 0.05.

COC1=C(OC)C(=O)C(C/C=C(\C)CC/C=C(\C)CC/C=C(\C)CC/C=C(\C)CC/C=C(\C)CC/C=C(\C)CC/C=C(\C)CC/C=C(\C)CC/C=C(\C)CCC=C(C)C)=C(C)C1=O [Q10, Coenzyme Q10]
apoptotic population (MCF-7): increase only in early apoptotic population
early and late apoptotic population (PC-3): increase in both early and late apoptotic population
apoptotic population (SK-MEL28): increase only in early apoptotic population
expression of PDH-E1 ([1]; cancer cells): progressive increase in the expression of the PDH-E1 proteins
expression of PDH-E1 ([1]; normal cells): minimal changes in the normal cells
CEACAM1 RNA transcript (HK-2 cells): highly upregulated
